Test results reported in patent US10947253B2, “Fused polycyclic dimers” (Ankh Life Sciences Limited, priority 2019, dated 2021).
Read-outs that look alike come from different tables or passages of the source.

What was measured:
[1] = tested on: KMS-34; assay: MTT growth inhibition (in vitro cytotoxicity), KMS-34; assay type: cell-based; details: Homo sapiens, average IC50
Protocol: (§1) The following Table sets forth the IC50 values of harmaline and quinoline analogs against 23 human cancer cell lines. Growth inhibition effects (in vitro cytotoxicity) on pancreatic, endometrial, breast, lung, ovarian, renal, cervical, lymphoma, and myeloma cancer cells were determined by MTT assays and represented by average IC50 values. In the Table, the results are given in terms of μM, and nd=not determined.

[2] = tested on: A2780; assay: MTT growth inhibition (in vitro cytotoxicity), A2780; assay type: cell-based; details: Homo sapiens, average IC50
Protocol: as §1

[3] = tested on: MOLP-8; assay: MTT growth inhibition (in vitro cytotoxicity), MOLP-8; assay type: cell-based; details: Homo sapiens, average IC50
Protocol: as §1

[4] = tested on: OCI-LY3; assay: MTT growth inhibition (in vitro cytotoxicity), OCI-LY3; assay type: cell-based; details: Homo sapiens, average IC50
Protocol: as §1

[5] = tested on: MDA-MB-231; assay: MTT growth inhibition (in vitro cytotoxicity), MDA-MB-231; assay type: cell-based; details: Homo sapiens, average IC50
Protocol: as §1

[6] = tested on: H1650(EGFR mut); assay: MTT growth inhibition (in vitro cytotoxicity), H1650(EGFR mut); assay type: cell-based; details: Homo sapiens, NCI-H1650, average IC50
Protocol: as §1

[7] = tested on: L363; assay: MTT growth inhibition (in vitro cytotoxicity), L363; assay type: cell-based; details: Homo sapiens, L-363, average IC50
Protocol: as §1

[8] = tested on: SiHA; assay: MTT growth inhibition (in vitro cytotoxicity), SiHA; assay type: cell-based; details: Homo sapiens, average IC50
Protocol: as §1

[9] = tested on: A498; assay: MTT growth inhibition (in vitro cytotoxicity), A498; assay type: cell-based; details: Homo sapiens, average IC50
Protocol: as §1

[10] = tested on: JIM1; assay: MTT growth inhibition (in vitro cytotoxicity), JIM1; assay type: cell-based; details: Homo sapiens, average IC50
Protocol: as §1

[11] = tested on: ASPC-1; assay: MTT growth inhibition (in vitro cytotoxicity), ASPC-1; assay type: cell-based; details: Homo sapiens, ASPC1, average IC50
Protocol: as §1

[12] = tested on: RPMI-8226; assay: MTT growth inhibition (in vitro cytotoxicity), RPMI-8226; assay type: cell-based; details: Homo sapiens, average IC50
Protocol: as §1

[13] = Metabolic half-life; assay type: in vitro ADME; details: read-out: metabolic half-lives
[14] = tested on: FaDu; assay: MTT growth inhibition (in vitro cytotoxicity), FaDu; assay type: cell-based; details: Homo sapiens, average IC50
Protocol: as §1

[15] = tested on: MIA Paca-2; assay: MTT growth inhibition (in vitro cytotoxicity), MIA Paca-2; assay type: cell-based; details: Homo sapiens, average IC50
Protocol: as §1

[16] = tested on: H1975 (EGFR mut); assay: MTT growth inhibition (in vitro cytotoxicity), H1975 (EGFR mut); assay type: cell-based; details: Homo sapiens, NCI-H1975, average IC50
Protocol: as §1

[17] = tested on: A2780CP; assay: MTT growth inhibition (in vitro cytotoxicity), A2780CP; assay type: cell-based; details: Homo sapiens, A2780C/P, average IC50
Protocol: as §1

[18] = tested on: HCC70; assay: MTT growth inhibition (in vitro cytotoxicity), HCC70; assay type: cell-based; details: Homo sapiens, average IC50
Protocol: as §1

[19] = tested on: BxPC-3; assay: MTT growth inhibition (in vitro cytotoxicity), BxPC-3; assay type: cell-based; details: Homo sapiens, average IC50
Protocol: as §1

[20] = tested on: KMM-1; assay: MTT growth inhibition (in vitro cytotoxicity), KMM-1; assay type: cell-based; details: Homo sapiens, average IC50
Protocol: as §1

[21] = tested on: AN3CA; assay: MTT growth inhibition (in vitro cytotoxicity), AN3CA; assay type: cell-based; details: Homo sapiens, AN3-CA, average IC50
Protocol: as §1

[22] = tested on: human cancer cell lines; assay: Cancer cell growth inhibition, summary over cell lines; assay type: cell-based; details: read-out: cancer cell growth inhibition (IC50)
Protocol: as §1

[23] = tested on: HEC-1a; assay: MTT growth inhibition (in vitro cytotoxicity), HEC-1a; assay type: cell-based; details: Homo sapiens, average IC50
Protocol: as §1

[24] = tested on: DoHH-2; assay: MTT growth inhibition (in vitro cytotoxicity), DoHH-2; assay type: cell-based; details: Homo sapiens, average IC50
Protocol: as §1

[25] = tested on: MDA-MB-468; assay: MTT growth inhibition (in vitro cytotoxicity), MDA-MB-468; assay type: cell-based; details: Homo sapiens, average IC50
Protocol: as §1

| Structure (SMILES) | IC50 [1] [µM] | IC50 [2] [µM] | IC50 [3] [µM] | IC50 [4] [µM] | IC50 [5] [µM] | IC50 [6] [µM] | IC50 [7] [µM] | IC50 [8] [µM] | IC50 [9] [µM] | IC50 [10] [µM] | IC50 [11] [µM] | IC50 [12] [µM] | IC50 [14] [µM] | IC50 [15] [µM] | IC50 [16] [µM] | IC50 [17] [µM] | IC50 [18] [µM] | IC50 [19] [µM] | IC50 [20] [µM] | IC50 [24] [µM] | further results |
| --- | --- | --- | --- | --- | --- | --- | --- | --- | --- | --- | --- | --- | --- | --- | --- | --- | --- | --- | --- | --- | --- |
| COc1ccc2c3c([nH]c2c1)C(CC(CC1=NCCc2c1[nH]c1cc(OC)ccc21)c1ccc(O)c(OC)c1)=NCC3 [Compound 5, 4-(1,3-bis(7-methoxy-4,9-dihydro-3H-pyrido[3,4-b]indol-1-yl)propan-2-yl)-2-methoxy-phenol] | 4.72 | 5 | 3.37 | 4.54 | 2.52 | 2.78 | 2.69 | 4.88 | 3.56 | 3.17 | 6.75 | 3.19 | 3.87 | 2.87 | 6.12 | 3.76 | 2.38 | 2.11 | 3.48 | 1.83 | half-life [13]: 1.28 ± 0.0393 h; IC50 [21]: 2.5 µM; IC50 ([22]; cell lines not specified): 4 to 7 µM; IC50 [23]: 5.05 µM; IC50 [25]: 2.76 µM |
| COc1ccc2c3c([nH]c2c1)C(CC(CC1=NCCc2c1[nH]c1cc(OC)ccc21)c1ccccc1)=NCC3 [Compound 6, 1,1′-(2-phenylpropane-1,3-diyl)bis(7-methoxy-4,9-dihydro-3H-pyrido[3,4-b]indole)] | – | 2.95 | – | – | – | – | 1.4 | – | – | 2.22 | 2.08 | – | 1.58 | 1.85 | – | – | – | – | 1.91 | 1.98 | IC50 ([22]; cell lines not specified): 4 to 7 µM |
| COc1ccc2[nH]c3c(c2c1)CCN=C3CCCC1=NCCc2c1[nH]c1ccc(OC)cc21 [Compound 7, 1,3-bis(6-methoxy-4,9-dihydro-3H-pyrido[3,4-b]indol-1-yl)propane] | 4.41 | 2.54 | 1.88 | 8.85 | 3.12 | 4.95 | 2.47 | 12.7 | 5.39 | 6.15 | 7.9 | 1.97 | 2.34 | 4.54 | 5.77 | 4.12 | 5.13 | 3.21 | 5.18 | 2.41 | half-life [13]: 2.6 ± 0.124 h; IC50 [21]: 3.01 µM; IC50 ([22]; cell lines not specified): 0.6 to 2 µM; IC50 [23]: 7.02 µM; IC50 [25]: 2.6 µM |
| COc1ccc2[nH]c3c(c2c1)CCN=C3CC(C)(C)CC1=NCCc2c1[nH]c1ccc(OC)cc21 [Compound 8, 1,1′-(2,2-dimethylpropane-1,3-diyl)bis(6-methoxy-4,9-dihydro-3H-pyrido[3,4-b]indole)] | 1.7 | 1.38 | 0.67 | 2.59 | 1.5 | 1.78 | 1.21 | 2.89 | 1.71 | 2.59 | 2.07 | 0.81 | 0.98 | 1.22 | 2.08 | 2.23 | 1.3 | 0.95 | 1.49 | 2.21 | half-life [13]: 6.88 ± 1.94 h; IC50 [21]: 1.96 µM; IC50 ([22]; cell lines not specified): 0.6 to 2 µM; IC50 [23]: 2.22 µM; IC50 [25]: 1.9 µM |
| COc1ccc2[nH]c3c(c2c1)CCN=C3CCCCC1=NCCc2c1[nH]c1ccc(OC)cc21 [Compound 9, 1,4-bis(6-methoxy-4,9-dihydro-3H-pyrido[3,4-b]indol-1-yl)butane] | 15.1 | 11.6 | 3.68 | 6.99 | 19.4 | 15.1 | 8.34 | 19.7 | 19.2 | 21.1 | 20.2 | 5.54 | 6.82 | 6.58 | 19.1 | 17.8 | 11.9 | 10.7 | 12.2 | 6.48 | IC50 [21]: 20.7 µM; IC50 [23]: 20.7 µM; IC50 [25]: 7.09 µM |
| COc1ccc2c3c([nH]c2c1)C(CC(CC1NCCc2c1[nH]c1cc(OC)ccc21)c1ccc(O)c(OC)c1)NCC3 (centres unmarked) [Compound 10, 4-(1,3-bis(7-methoxy-2,3,4,9-tetrahydro-1H-pyrido[3,4-b]indol-1-yl)propan-2-yl)-2-methoxyphenol] | – | 6.14 | – | – | – | – | 2.17 | – | – | 2.27 | 4.62 | – | 2.61 | 2.53 | – | – | – | – | 2.53 | 2.24 | – |
| COc1ccc2c3c([nH]c2c1)C(CC(CC1NCCc2c1[nH]c1cc(OC)ccc21)c1ccccc1)NCC3 (centres unmarked) [Compound 11, 1,1′-(2-phenylpropane-1,3-diyl)bis(7-methoxy-2,3,4,9-tetrahydro-1H-pyrido[3,4-b]indole)] | – | 3.4 | – | – | – | – | 1.92 | – | – | 2.42 | 2.4 | – | 2.22 | 2.25 | – | – | – | – | 2.05 | 2.31 | IC50 ([22]; cell lines not specified): 2 to 4 µM |
| COc1cc(C(Cc2nccc3ccccc23)Cc2nccc3ccccc23)ccc1O [Compound 13, 4-(1,3-di(isoquinolin-1-yl)propan-2-yl)-2-methoxyphenol] | 11.8 | 27.2 | 9.71 | 36.7 | 28.2 | 38.1 | 29.2 | 45.2 | 38.5 | 29.2 | 49 | 18 | 33.6 | 19.7 | 42.2 | 25.1 | 37.2 | 20.1 | 14.8 | 19.5 | IC50 [21]: 19.5 µM; IC50 [23]: 39.8 µM; IC50 [25]: 19.6 µM |
| COc1cc(C(Cc2ccc3ccccc3n2)Cc2ccc3ccccc3n2)ccc1O [Compound 16, 4-(1,3-di(quinolin-2-yl)propan-2-yl)-2-methoxyphenol] | 14.8 | 29.7 | 16 | 77.5 | 31.6 | 51 | 29.5 | 84.3 | 81.3 | 35.4 | 94.6 | 15.2 | 49.2 | 24.5 | 58.9 | 22.3 | 35.2 | 19.5 | 17 | 14.8 | IC50 [21]: 19.7 µM; IC50 [23]: 67.7 µM; IC50 [25]: 31.6 µM |
| c1ccc(C(Cc2ccc3ccccc3n2)Cc2ccc3ccccc3n2)cc1 [Compound 17, 2,2′-(2-phenylpropane-1,3-diyl)diquinoline] | 7.85 | 13.3 | 6.56 | 23.8 | 14.5 | 24.6 | 7.99 | 23.5 | 21.9 | 11 | 28.7 | 7.92 | 18.6 | 13.3 | 30.1 | 9 | 17.2 | 7.64 | 7.99 | 6.9 | IC50 [21]: 9.35 µM; IC50 [23]: 25.4 µM; IC50 [25]: 25.8 µM |
| COc1ccc2nc(CC(Cc3ccc4cc(OC)ccc4n3)c3ccccc3)ccc2c1 [Compound 18, 2,2′-(2-phenylpropane-1,3-diyl)bis(6-methoxyquinoline)] | 17.2 | 25.6 | 15 | 42.2 | > 100 | 48.5 | 17.4 | > 100 | > 100 | 31.7 | > 100 | 17.8 | 30.3 | 21.9 | > 100 | 26.6 | > 100 | 25.1 | 14.8 | 14.3 | IC50 [21]: 41.8 µM; IC50 [23]: 37.6 µM; IC50 [25]: > 100 µM |
| COc1ccc2c3c([nH]c2c1)C(C)=NCC3 [harmaline, reference compound] | – | – | – | – | – | – | – | – | – | – | – | – | – | – | – | – | – | – | – | – | IC50 [22]: 25 µM |
| COc1cc(C=O)ccc1O [vanillin, reference compound] | – | – | – | – | – | – | – | – | – | – | – | – | – | – | – | – | – | – | – | – | IC50 ([22]; cell lines not specified): 40 µM |
